Experimental data reported in PubChem BioAssay (NCI).
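Results reflect a 48-hour exposure of cells in 96-well plates to compound at five concentrations. At the TGI there is no net growth.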

What was measured:
Test in all cases: inhibition of tumour cell growth, NCI panel, 48 h
786-0 renal = test system: 786-0 renal
A498 renal = test system: A498 renal
CAKI-1 renal = test system: CAKI-1 renal
COLO 205 colon = test system: COLO 205 colon
DU-145 prostate = test system: DU-145 prostate
EKVX NSCLC = test system: EKVX NSCLC
HCT-116 colon = test system: HCT-116 colon
HCT-15 colon = test system: HCT-15 colon
HL-60(TB) leukemia = test system: HL-60(TB) leukemia
HOP-62 NSCLC = test system: HOP-62 NSCLC
HOP-92 NSCLC = test system: HOP-92 NSCLC
HS 578T breast = test system: HS 578T breast
HT29 colon = test system: HT29 colon
IGROV1 ovarian = test system: IGROV1 ovarian
K-562 leukemia = test system: K-562 leukemia
KM12 colon = test system: KM12 colon
LOX IMVI melanoma = test system: LOX IMVI melanoma
M14 melanoma = test system: M14 melanoma
MALME-3M melanoma = test system: MALME-3M melanoma
MCF7 breast = test system: MCF7 breast
MDA-MB-231 breast = test system: MDA-MB-231 breast
MDA-MB-435 = test system: MDA-MB-435
MDA-N = test system: MDA-N
NCI-H226 lung = test system: NCI-H226 lung
NCI-H23 lung = test system: NCI-H23 lung
NCI-H460 lung = test system: NCI-H460 lung
NCI-H522 lung = test system: NCI-H522 lung
NCI/ADR-RES ovarian = test system: NCI/ADR-RES ovarian
OVCAR-3 ovarian = test system: OVCAR-3 ovarian
OVCAR-4 ovarian = test system: OVCAR-4 ovarian
OVCAR-8 ovarian = test system: OVCAR-8 ovarian
PC-3 prostate = test system: PC-3 prostate
RXF 393 renal = test system: RXF 393 renal
SF-268 CNS = test system: SF-268 CNS
SF-295 CNS = test system: SF-295 CNS
SF-539 CNS = test system: SF-539 CNS
SK-MEL-28 melanoma = test system: SK-MEL-28 melanoma
SK-OV-3 ovarian = test system: SK-OV-3 ovarian
SN12C renal = test system: SN12C renal
SNB-19 CNS = test system: SNB-19 CNS
SNB-75 CNS = test system: SNB-75 CNS
SW-620 colon = test system: SW-620 colon
T-47D breast = test system: T-47D breast
TK-10 renal = test system: TK-10 renal
U251 CNS = test system: U251 CNS
UACC-257 melanoma = test system: UACC-257 melanoma
UACC-62 melanoma = test system: UACC-62 melanoma
UO-31 renal = test system: UO-31 renal
A549 NSCLC = test system: A549 NSCLC
ACHN renal = test system: ACHN renal
BT-549 breast = test system: BT-549 breast
CCRF-CEM leukemia = test system: CCRF-CEM leukemia
HCC-2998 colon = test system: HCC-2998 colon
MOLT-4 leukemia = test system: MOLT-4 leukemia
OVCAR-5 ovarian = test system: OVCAR-5 ovarian
RPMI-8226 leukemia = test system: RPMI-8226 leukemia
SK-MEL-5 melanoma = test system: SK-MEL-5 melanoma
SK-MEL-2 melanoma = test system: SK-MEL-2 melanoma
SR leukemia = test system: SR leukemia

Measured: TGI

Oc1cc(-c2ccc(Cl)cc2)cn2c1nc1ccccc12
not listed: A549 NSCLC | ACHN renal | BT-549 breast | CCRF-CEM leukemia | HCC-2998 colon | MOLT-4 leukemia | OVCAR-5 ovarian | RPMI-8226 leukemia | SK-MEL-5 melanoma | SK-MEL-2 melanoma | SR leukemia
> 100 µM: all other assays above

Cc1c(Cl)c(S(N)(=O)=O)cc2c1NC=NS2(=O)=O
not listed: HL-60(TB) leukemia | SF-539 CNS | SK-MEL-2 melanoma | SR leukemia
> 100 µM: all other assays above

Cc1c2c(Cl)c3c(c(Cl)c2c(C)c2c(Cl)c4c(c(Cl)c12)C(c1ccccc1)(c1ccccc1)C4(c1ccccc1)c1ccccc1)C(c1ccccc1)(c1ccccc1)C3(c1ccccc1)c1ccccc1
not listed: HL-60(TB) leukemia | HS 578T breast | RPMI-8226 leukemia
> 100 µM: all other assays above
